Test results taken from ChEMBL document CHEMBL1201862, “PubChem BioAssay data set” (2004).
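Values below derive from 48-hour exposures of cells grown in 96-well plates, with endpoints linearly interpolated between the two concentrations bracketing the appropriate inhibition level. At the GI50, growth is halved.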 Activity calls are given as the source filed them. Cut-off read from the data, not from the text of the source: active = GI50 up to about 1.1 µM and inactive = higher.

Columns and labels:
Assay in all cases: DTP human tumour cell line panel, 48 h
SF-295 = system: SF-295
HCT-116 = system: HCT-116
UO-31 = system: UO-31
NCI-H460 = system: NCI-H460
HL-60 = system: HL-60
SK-MEL-2 = system: SK-MEL-2
TK-10 = system: TK-10
UACC-257 = system: UACC-257
OVCAR-3 = system: OVCAR-3
ACHN = system: ACHN
EKVX = system: EKVX
NCI-H226 = system: NCI-H226
A549 = system: A549
COLO 205 = system: COLO 205
U-251 = system: U-251
CAKI-1 = system: CAKI-1
IGROV-1 = system: IGROV-1
Malme-3M = system: Malme-3M
MCF7 = system: MCF7
SNB-19 = system: SNB-19
NCI/ADR-RES = system: NCI/ADR-RES
MDA-MB-435 = system: MDA-MB-435
OVCAR-8 = system: OVCAR-8
RXF 393 = system: RXF 393
SK-OV-3 = system: SK-OV-3
SW-620 = system: SW-620
K562 = system: K562
PC-3 = system: PC-3
LOX IMVI = system: LOX IMVI
OVCAR-5 = system: OVCAR-5
M14 = system: M14
MDA-MB-231 = system: MDA-MB-231
MDA-N = system: MDA-N
HCC 2998 = system: HCC 2998
NCI-H23 = system: NCI-H23
KM12 = system: KM12
HCT-15 = system: HCT-15
HOP-62 = system: HOP-62
SK-MEL-28 = system: SK-MEL-28
UACC-62 = system: UACC-62
CCRF-CEM = system: CCRF-CEM
SF-539 = system: SF-539
MOLT-4 = system: MOLT-4
SN12C = system: SN12C
RPMI-8226 = system: RPMI-8226
NCI-H522 = system: NCI-H522
T47D = system: T47D
HOP-92 = system: HOP-92
786-0 = system: 786-0
SF-268 = system: SF-268
SR = system: SR
HT-29 = system: HT-29
OVCAR-4 = system: OVCAR-4
DU-145 = system: DU-145
SNB-75 = system: SNB-75
Hs-578T = system: Hs-578T
SK-MEL-5 = system: SK-MEL-5
A498 = system: A498

`OC1NC2CC3NC(O)C(O)NC3CC2NC1O` (centres undefined) was tested, and the GI50 (SF-295) was > 100 µM (inactive), the GI50 (HCT-116) was > 100 µM (inactive) and the GI50 (UO-31) was > 100 µM (inactive). The GI50 (NCI-H460) was > 100 µM (inactive), the GI50 (HL-60) was > 100 µM (inactive) and the GI50 (SK-MEL-2) was > 100 µM (inactive). For the same compound, the GI50 (TK-10) was > 100 µM (inactive), the GI50 (UACC-257) was > 100 µM (inactive) and the GI50 (OVCAR-3) was > 100 µM (inactive). For the same compound, the GI50 (ACHN) was > 100 µM (inactive), the GI50 (EKVX) was > 100 µM (inactive) and the GI50 (NCI-H226) was > 100 µM (inactive). The GI50 (A549) was > 100 µM (inactive), the GI50 (COLO 205) was > 100 µM (inactive) and the GI50 (U-251) was > 100 µM (inactive). For the same compound, the GI50 (CAKI-1) was > 100 µM (inactive), the GI50 (IGROV-1) was > 100 µM (inactive) and the GI50 (Malme-3M) was > 100 µM (inactive). For the same compound, the GI50 (MCF7) was > 100 µM (inactive), the GI50 (SNB-19) was > 100 µM (inactive) and the GI50 (NCI/ADR-RES) was > 100 µM (inactive). For the same compound, the GI50 (MDA-MB-435) was > 100 µM (inactive), the GI50 (OVCAR-8) was > 100 µM (inactive) and the GI50 (RXF 393) was > 100 µM (inactive). For the same compound, the GI50 (SK-OV-3) was > 100 µM (inactive), the GI50 (SW-620) was > 100 µM (inactive) and the GI50 (K562) was > 100 µM (inactive). For the same compound, the GI50 (PC-3) was > 100 µM (inactive), the GI50 (LOX IMVI) was > 100 µM (inactive) and the GI50 (OVCAR-5) was > 100 µM (inactive). The GI50 (M14) was > 100 µM (inactive), the GI50 (MDA-MB-231) was > 100 µM (inactive) and the GI50 (MDA-N) was > 100 µM (inactive). The GI50 (HCC 2998) was > 100 µM (inactive), the GI50 (NCI-H23) was > 100 µM (inactive) and the GI50 (KM12) was > 100 µM (inactive). The GI50 (HCT-15) was over 100 µM, the GI50 (HOP-62) was > 100 µM (inactive) and the GI50 (SK-MEL-28) was > 100 µM (inactive). For the same compound, the GI50 (UACC-62) was > 100 µM (inactive), the GI50 (CCRF-CEM) was > 100 µM (inactive) and the GI50 (SF-539) was > 100 µM (inactive). For the same compound, the GI50 (MOLT-4) was > 100 µM (inactive), the GI50 (SN12C) was > 100 µM (inactive) and the GI50 (RPMI-8226) was > 100 µM (inactive). For the same compound, the GI50 (NCI-H522) was > 100 µM (inactive), the GI50 (T47D) was > 100 µM (inactive) and the GI50 (HOP-92) was > 100 µM (inactive). For the same compound, the GI50 (786-0) was > 100 µM (inactive), the GI50 (SF-268) was > 100 µM (inactive) and the GI50 (SR) was > 100 µM (inactive). The GI50 (HT-29) was > 100 µM (inactive), the GI50 (OVCAR-4) was > 100 µM (inactive) and the GI50 (DU-145) was > 100 µM (inactive). The GI50 (SNB-75) was > 100 µM (inactive), the GI50 (Hs-578T) was > 100 µM (inactive) and the GI50 (SK-MEL-5) was > 100 µM (inactive).

With `Oc1ccc[n+](Cc2ccccc2)c1` the GI50 (SF-295) was > 100 µM (inactive), the GI50 (HCT-116) was > 100 µM (inactive) and the GI50 (UO-31) was > 100 µM (inactive). For the same compound, the GI50 (NCI-H460) was > 100 µM (inactive), the GI50 (HL-60) was > 100 µM (inactive) and the GI50 (SK-MEL-2) was > 100 µM (inactive). For the same compound, the GI50 (TK-10) was > 100 µM (inactive), the GI50 (UACC-257) was > 100 µM (inactive) and the GI50 (OVCAR-3) was > 100 µM (inactive). The GI50 (ACHN) was > 100 µM (inactive), the GI50 (NCI-H226) was > 100 µM (inactive) and the GI50 (A549) was > 100 µM (inactive). The GI50 (COLO 205) was > 100 µM (inactive), the GI50 (U-251) was > 100 µM (inactive) and the GI50 (CAKI-1) was > 100 µM (inactive). The GI50 (Malme-3M) was > 100 µM (inactive), the GI50 (MCF7) was > 100 µM (inactive) and the GI50 (SNB-19) was > 100 µM (inactive). For the same compound, the GI50 (NCI/ADR-RES) was > 100 µM (inactive), the GI50 (MDA-MB-435) was > 100 µM (inactive) and the GI50 (OVCAR-8) was > 100 µM (inactive). The GI50 (RXF 393) was > 100 µM (inactive), the GI50 (SK-OV-3) was > 100 µM (inactive) and the GI50 (K562) was > 100 µM (inactive). The GI50 (PC-3) was > 100 µM (inactive), the GI50 (LOX IMVI) was > 100 µM (inactive) and the GI50 (OVCAR-5) was > 100 µM (inactive). The GI50 (M14) was > 100 µM (inactive), the GI50 (MDA-MB-231) was > 100 µM (inactive) and the GI50 (MDA-N) was > 100 µM (inactive). The GI50 (A498) was > 100 µM (inactive), the GI50 (HCC 2998) was > 100 µM (inactive) and the GI50 (NCI-H23) was > 100 µM (inactive). For the same compound, the GI50 (KM12) was > 100 µM (inactive), the GI50 (HCT-15) was over 100 µM and the GI50 (HOP-62) was > 100 µM (inactive). The GI50 (SK-MEL-28) was > 100 µM (inactive), the GI50 (UACC-62) was > 100 µM (inactive) and the GI50 (CCRF-CEM) was > 100 µM (inactive). The GI50 (SF-539) was > 100 µM (inactive), the GI50 (MOLT-4) was > 100 µM (inactive) and the GI50 (SN12C) was > 100 µM (inactive). The GI50 (RPMI-8226) was > 100 µM (inactive), the GI50 (NCI-H522) was > 100 µM (inactive) and the GI50 (T47D) was > 100 µM (inactive). The GI50 (786-0) was > 100 µM (inactive), the GI50 (SF-268) was > 100 µM (inactive) and the GI50 (HT-29) was > 100 µM (inactive). For the same compound, the GI50 (DU-145) was > 100 µM (inactive), the GI50 (SNB-75) was > 100 µM (inactive) and the GI50 (Hs-578T) was > 100 µM (inactive). The GI50 (SK-MEL-5) was > 100 µM (inactive).
